ChEMBL document CHEMBL1201862, “PubChem BioAssay data set” (2004)
The source made the active and inactive calls.

Columns and labels:
[1] = NIH3T3 cell viability loss – ATP luminescence, mouse fibroblasts, counter-screen, dose response (AID 2010); type: functional, cell-based;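 note: cells exposed to compound for about 90 hours before reading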
[2] = Trypanosoma cruzi growth suppression in host cells – NIH3T3 host cells, beta-gal luminescence, confirmation (AID 2044); type: functional, cell-based;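 note: intracellular parasites grown in NIH/3T3 mouse fibroblasts as host cells; luminescent beta-galactosidase reporter signal from transgenic T. cruzi replicating inside host cells; inhibitors lower the luminescence signal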
Cytochrome P450 2C19 = Cytochrome P450 2C19 (Homo sapiens, UniProt P33261); assay: Cytochrome panel assay with activity outcomes. Panel member name: p450-cyp2c19 Compounds with AC50 equal or less than 10 uM are considered active; type: functional
Chain of Cytochrome P450 2C19 (P33261 whole entry): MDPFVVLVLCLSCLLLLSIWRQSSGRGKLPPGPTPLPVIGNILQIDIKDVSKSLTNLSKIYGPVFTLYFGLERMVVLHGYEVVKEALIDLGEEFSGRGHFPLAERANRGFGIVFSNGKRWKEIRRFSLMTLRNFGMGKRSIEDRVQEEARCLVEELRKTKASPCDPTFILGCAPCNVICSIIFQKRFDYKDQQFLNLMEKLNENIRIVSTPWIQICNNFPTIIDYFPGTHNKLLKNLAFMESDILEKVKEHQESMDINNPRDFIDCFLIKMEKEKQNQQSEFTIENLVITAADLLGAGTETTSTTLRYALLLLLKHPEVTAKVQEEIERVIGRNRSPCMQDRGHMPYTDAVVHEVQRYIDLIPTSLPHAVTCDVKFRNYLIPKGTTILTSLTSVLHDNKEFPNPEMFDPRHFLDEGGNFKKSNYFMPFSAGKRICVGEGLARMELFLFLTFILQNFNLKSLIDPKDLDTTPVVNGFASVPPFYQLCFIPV

Streptococcus = assay: GAS UMAA2166 growth inhibition – luminescence, BacTiterGlo, counter-screen for streptokinase expression inhibitor project, dose response (AID 1915); type: functional, organism-based;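 note: potency for reduction of bacterial viability or growth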
[3] = system: Streptococcus sp. 'group A'; assay: Streptococcus pyogenes SK(-)GAS viability under kanamycin – luminescence, BacTiterGlo, confirmation, counter-screen for streptokinase expression inhibitor project, dose response (AID 1900); type: functional, organism-based

Structure (SMILES) | EC50 [1] | EC50 [2] | further results
CN1CCC(N(C)S(=O)(=O)c2ccc(NC(=O)COc3cccc(Cl)c3)cc2)CC1 | > 30 µM (not active) | 0.268 µM (active) | 
COc1ccc(NC(=O)N2CCCC3(CCNCC3)C2)cc1 |  |  | AC50 (Cytochrome P450 2C19): inconclusive
CCCCCCSc1ccc(-c2nc3ccc(C)cn3c2NCc2ccccc2)cc1OC | 8.59 µM (active) | 0.701 µM (active) | 
Cc1cc(C(F)(F)F)c2c(n1)sc1c(O)cc(O)nc12 |  |  | EC50 (Streptococcus): > 150 µM (not active); EC50 [3]: 27.8 µM (active)
CC(C)=NO[C@@H](C)c1cn([C@@H]2COC[C@@H]2O)nn1 |  |  | AC50 (Cytochrome P450 2C19): inconclusive
O=[N+]([O-])c1ccc2c(OCc3nnc(-c4ccccc4Br)o3)ncnc2c1 | 10.4 µM (active) | 0.213 µM (active) | 
CC(C)CCN1CCN(C2CCN(c3ccc4c(c3)OCO4)CC2)CC1CCO (centres undefined) | > 60 µM (not active) | 1.56 µM (active) | 
O=C(c1ccc([N+](=O)[O-])s1)N1CCc2ccccc2C1 | > 60 µM (not active) | 0.476 µM (active) | 
CC(C)CN1CCCC(N2CCN(c3cccc(Cl)c3)CC2)C1 (centres undefined) | > 60 µM (not active) | 3.19 µM (active) | 
CCCC(=O)NNC(=O)Nc1ccccc1 |  |  | AC50 (Cytochrome P450 2C19; read-out: AC50): 28.2 µM (inconclusive)
CCN(CC)CCNc1c2c(c(C#N)c3nc4ccccc4n13)CCCC2 | > 60 µM (not active) | 0.226 µM (active) | 
Cn1cc(CN2CCCC(CO)(Cc3ccccc3)C2)c2ccccc21 (centres undefined) | > 60 µM (not active) | 0.62 µM (active) | 
COc1ccc(/C=C2\CCCc3c2nc2ccccc2c3C(=O)OCC(=O)c2c(N)n(C)c(=O)n(C)c2=O)cc1 | > 60 µM (not active) | 1.05 µM (active) | 
CCOC(=O)Nc1ccc2c(c1)N(C(=O)CCN(C)C)c1ccccc1S2 | > 60 µM (not active) | 1.8 µM (active) | 
O=C(Nc1nc(-c2ccccc2)c(-c2ccccc2)s1)c1ccc(S(=O)(=O)N(CCCl)CCCl)cc1 | > 30 µM (not active) | 1.25 µM (active) | 
N#Cc1cnn(-c2nc(SCc3ccccc3)nc3sc4c(c23)CCCC4)c1N | > 60 µM (not active) | 2.24 µM (active) | 
CC1CC(=O)c2cnc(N)nc2C1 (centres undefined) |  |  | AC50 (Cytochrome P450 2C19): inconclusive
Cc1nc2ncnn2c(O)c1NC(=O)CC12CC3CC(CC(C3)C1)C2 |  |  | AC50 (Cytochrome P450 2C19; read-out: AC50): 44.7 µM (inconclusive)
COc1ccccc1NC(=O)CCN1C(=O)C2CC=C(Cl)CC2C1=O (centres undefined) |  |  | AC50 (Cytochrome P450 2C19; read-out: AC50): 7.94 µM (inconclusive)
Cc1cc(C)c(C#N)c(Oc2ccc(F)cc2)n1 |  |  | AC50 (Cytochrome P450 2C19; read-out: AC50): 39.8 µM (inconclusive)
COCc1c(Br)c(C)nc(OCC(=O)N/N=C/c2cc(C)n(-c3ccc([N+](=O)[O-])cc3)c2C)c1C#N | > 60 µM (not active) | 1.95 µM (active) | 
NC(=S)N/N=C/c1ccc(-c2cc(Cl)c(Cl)cc2Cl)o1 | > 60 µM (inconclusive) | 0.122 µM (active) | 
Fc1ccc(N/N=C/c2ccc(N3CCOCC3)cc2)c(F)c1 | > 30 µM (not active) | 0.406 µM (active) | 
